Target: T1, Alkaline phosphatase, tissue-nonspecific isozyme (Homo sapiens, UniProt P05186)
T1 sequence (P05186 whole entry): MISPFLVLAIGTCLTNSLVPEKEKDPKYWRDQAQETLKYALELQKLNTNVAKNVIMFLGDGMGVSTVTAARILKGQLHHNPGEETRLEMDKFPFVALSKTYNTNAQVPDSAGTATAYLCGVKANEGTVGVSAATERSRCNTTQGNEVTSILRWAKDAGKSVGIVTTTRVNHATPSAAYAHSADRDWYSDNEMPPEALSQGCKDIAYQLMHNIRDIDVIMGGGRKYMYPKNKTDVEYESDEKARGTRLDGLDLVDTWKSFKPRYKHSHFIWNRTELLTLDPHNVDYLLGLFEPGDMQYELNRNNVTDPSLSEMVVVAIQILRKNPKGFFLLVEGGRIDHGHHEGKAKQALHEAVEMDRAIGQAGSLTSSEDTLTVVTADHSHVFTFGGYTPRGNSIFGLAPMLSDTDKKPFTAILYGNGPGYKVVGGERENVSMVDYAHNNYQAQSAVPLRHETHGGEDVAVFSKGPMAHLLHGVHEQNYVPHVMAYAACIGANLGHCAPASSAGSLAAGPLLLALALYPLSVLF
Assay: inhibition of tissue-nonspecific alkaline phosphatase – biochemical, luminescent (AID 518)

Q: How did the IC50 turn out when `COc1ccc(-c2[nH]nc3oc(=O)cc(C)c23)cc1` was run?
A: 1.35 µM

Q: `COC(=O)c1cc(-c2ccc(Br)cc2)n[nH]1` was tested. Which IC50 did it give?
A: 1.14 µM

Q: For `c1ccc(-c2[nH]nc3ccccc23)cc1`, which IC50 is on record?
A: 3.72 µM

Q: With `CC(=N)C(C#N)C(=O)CSc1nnc(-c2ccccc2Br)[nH]1` (configuration not stated) as the compound, how does the IC50 read?
A: 1.73 µM

Q: With `O=C(Nc1nnc(C2CCCCC2)[nH]1)C1CCCCC1` as the compound, how does the IC50 read?
A: > 100 µM

Q: With `CC1(C)CC(=O)c2c(n[nH]c2Cc2ccccc2)C1` as the compound, how does the IC50 read?
A: 1.83 µM

Q: Which IC50 does the source give for `O=C(O)c1cc(-c2ccc(Cl)cc2)n[nH]1` here?
A: 2.67 µM

Q: With `Brc1ccc(-c2nnc3sc(CNCc4ccc5c(c4)OCO5)cn23)cc1` [1-(1,3-benzodioxol-5-yl)-N-[[3-(4-bromophenyl)-6-thiazolo[2,3-c][1,2,4]triazolyl]methyl]methanamine] as the compound, how does the IC50 read?
A: > 100 µM

Q: With `O=C(Cc1ccc(-n2cccc2)cc1)N1CCN(c2ccccc2F)CC1` [1-(2-fluorophenyl)-4-{[4-(1H-pyrrol-1-yl)phenyl]acetyl}piperazine] as the compound, how does the IC50 read?
A: > 100 µM

Q: How did the IC50 turn out when `Cc1ccc2c(c1)-c1c(cnn1CC(=O)N1CCCN(Cc3ccccc3F)C1)CO2` [1-[3-(2-fluorobenzyl)hexahydropyrimidin-1-yl]-2-(8-methyl-4H-chromeno[4,3-c]pyrazol-1-yl)ethanone] was run?
A: > 100 µM

Q: Which IC50 does the source give for `O=c1c(=Cc2ccco2)sc2nc(-c3ccccc3Br)nn12` [2-(2-bromophenyl)-5-(2-furanylmethylidene)-6-thiazolo[3,2-b][1,2,4]triazolone] here?
A: > 100 µM

Q: With `Cc1ccc(-n2c(Cc3cccn3C)nnc2SCC(=O)Nc2nnc(C)s2)cc1` [2-({4-(4-methylphenyl)-5-[(1-methyl-1H-pyrrol-2-yl)methyl]-4H-1,2,4-triazol-3-yl}thio)-N-(5-methyl-1,3,4-thiadiazol-2-yl)acetamide] as the compound, how does the IC50 read?
A: > 100 µM

Q: With `CCc1ccc(OCc2nc(-c3ccccn3)no2)c(Br)c1` [2-{5-[(2-bromo-4-ethylphenoxy)methyl]-1,2,4-oxadiazol-3-yl}pyridine] as the compound, how does the IC50 read?
A: > 100 µM

Q: How did the IC50 turn out when `CCOC(=O)N1CCN(C(=O)c2ccc(CS(=O)(=O)c3ccccc3OC)o2)CC1` [4-[5-[(2-methoxyphenyl)sulfonylmethyl]-2-furoyl]piperazine-1-carboxylic acid ethyl ester] was run?
A: > 100 µM

Q: How did the IC50 turn out when `Cc1ccsc1C=c1sc2ncnn2c1=O` [5-[(3-methyl-2-thienyl)methylene][1,3]thiazolo[3,2-b][1,2,4]triazol-6(5H)-one] was run?
A: 11.7 µM

Q: With `COc1cc(CSc2nnc[nH]2)c(OC)cc1CSc1nnc[nH]1` [5-[[2,5-dimethoxy-4-[(1H-1,2,4-triazol-5-ylthio)methyl]phenyl]methylthio]-1H-1,2,4-triazole] as the compound, how does the IC50 read?
A: 1.66 µM

Q: How did the IC50 turn out when `COCc1n[nH]c2c1C(c1cc(OC)c(O)c(OC)c1)C(C#N)C(=N)O2` (configuration not stated) [6-azanyl-4-(3,5-dimethoxy-4-oxidanyl-phenyl)-3-(methoxymethyl)-2,4-dihydropyrano[2,3-c]pyrazole-5-carbonitrile] was run?
A: 5.25 µM

Q: How did the IC50 turn out when `COc1ccc2c(c1)CCc1c-2n[nH]c1C(=O)O` [7-methoxy-4,5-dihydro-2H-benzo[g]indazole-3-carboxylic acid] was run?
A: 2.62 µM

Q: With `O=C(C1CCN(S(=O)(=O)N2CCC3(CC2)OCCO3)CC1)N1CCN(Cc2ccccc2)CC1` [(4-benzylpiperazin-1-yl)-[1-(1,4-dioxa-8-azaspiro[4.5]decan-8-ylsulfonyl)piperidin-4-yl]methanone] as the compound, how does the IC50 read?
A: > 100 µM

Q: With `O=C(Cn1c(-c2ccccc2)noc1=O)Nc1ccc(N2CCCCCC2)cc1` [MLS000027331] as the compound, how does the IC50 read?
A: > 100 µM

Q: How did the IC50 turn out when `Cn1ncc2c1ncn1nc(CCc3ccccc3)nc21` [MLS000040759] was run?
A: 15.8 µM

Q: How did the IC50 turn out when `COc1ccc(CNC(=O)C(C)NC(=O)c2cc3ccccc3o2)cc1` (configuration not stated) [MLS000047147] was run?
A: > 100 µM

Q: How did the IC50 turn out when `c1ccc(-n2ncc3c2ncn2cnnc32)cc1` [MLS000048783] was run?
A: > 100 µM

Q: `Cc1ccc(-n2ncc3c2ncn2c(C)nnc32)cc1C` [MLS000082333] was tested. Which IC50 did it give?
A: 7.92 µM

Q: How did the IC50 turn out when `CCCc1nc2c3cnn(-c4cccc(Cl)c4)c3ncn2n1` [MLS000083263] was run?
A: > 100 µM

Q: Which IC50 does the source give for `OCc1nnn(-c2cccc(C(F)(F)F)c2)c1CO` [MLS000090420] here?
A: > 100 µM

Q: With `CCN(CC)S(=O)(=O)c1ccc2c(c1)c(=O)c(C(=O)N1CCOCC1)cn2C` [MLS000092367] as the compound, how does the IC50 read?
A: > 100 µM

Q: How did the IC50 turn out when `Oc1c2c(c(O)n1-c1nnc(Cc3ccccc3)[nH]1)CC=CC2` [MLS000100008] was run?
A: 0.33 µM

Q: Which IC50 does the source give for `Cn1c(NC(=O)CC(C)(C)C)cc(=O)n(C)c1=O` [MLS000103608] here?
A: > 100 µM

Q: Which IC50 does the source give for `CCCSc1nnc(NC(C)=O)[nH]1` [MLS000114796] here?
A: 0.82 µM

Q: `Cc1cc(NC(=O)c2noc3c2CCc2ccccc2-3)n(-c2ccccc2)n1` [MLS000116423] was tested. Which IC50 did it give?
A: > 100 µM

Q: For `CCCCNC(=O)c1ccc2nc(-c3ccco3)c(-c3ccco3)nc2c1` [MLS000119995], which IC50 is on record?
A: > 100 µM

Q: With `Cc1cc(=O)oc2n[nH]c(-c3ccccc3)c12` [MLS-0013971.0001] as the compound, how does the IC50 read?
A: 1.23 µM

Q: For `CC1(C)Cc2c(sc3nc4n(c(=N)c23)CCCCC4)CO1` [SMR000039131], which IC50 is on record?
A: 9.5 µM

Q: Which IC50 does the source give for `COC(=O)c1cc(-c2c[nH]c3ccccc23)[nH]n1` [SMR000079439] here?
A: 1.17 µM

Q: How did the IC50 turn out when `CCOC(=O)c1sc(NC(=O)CSc2nnc(-c3ccccc3)[nH]2)c(C#N)c1C` [ethyl 4-cyano-3-methyl-5-[[2-[(5-phenyl-1H-1,2,4-triazol-3-yl)sulfanyl]acetyl]amino]thiophene-2-carboxylate] was run?
A: 5.39 µM

Q: `COC(=O)c1cc(-c2ccccc2)n[nH]1` [methyl 3-phenyl-1H-pyrazole-5-carboxylate] was tested. Which IC50 did it give?
A: 1.24 µM

Reference: BindingDB's records for doi:10.7270/Q2SX6BMJ (Burnham Center for Chemical Genomics, 2008)
